One assay relates to ALOMY. Kind of assay: Pre-emergence herbicidal action against ALOMY. The class given is in vivo, Alopecurus myosuroides. Conditions: Alopecurus myosuroides, 504 h, pre-emergence; for pest or weed control at 80 g/ha: scored visually after 3 weeks vs untreated controls (100% = plants have died, 0% = like control plants); for pest or weed control at 320 g/ha: scored visually after 3 weeks, 100% = plants have died, 0% = like control plants. In short, it runs like this: (§1)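 Visual rating at 3 weeks vs untreated pots; 0–100% scale, 100% = plants died. Treatment: aqueous WP/EC spray onto covering soil, 600–800 l/ha, 0.2% wetter, seeds in sandy loam.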

The test system of a further assay is AMARE. Kind of assay: Pre-emergence herbicidal action against AMARE. It counts as in vivo, Amaranthus retroflexus. The settings on record: Amaranthus retroflexus, 504 h, 100% = plants have died, 0% = like control plants; for pest or weed control at 20 g/ha / pest or weed control at 80 g/ha: scored visually after 3 weeks vs untreated controls; for pest or weed control at 320 g/ha: scored visually after 3 weeks. Summed up:
as §1

Assay [1] deals with CYPES. Kind of assay: Pre-emergence herbicidal action against CYPES. It counts as in vivo. Conditions: Cyperus esculentus, 504 h. From the text:
(§2) Seeds of monocotyledonous and dicotyledonous weed plants and crop plants are laid out in sandy loam soil in wood-fiber pots and covered with soil. The compounds of the invention, formulated in the form of wettable powders (WP) or as emulsion concentrates (EC), are then applied to the surface of the covering soil in the form of an aqueous suspension or emulsion at a water application rate equivalent to 600 to 800 l/ha, with addition of 0.2% wetting agent. After the treatment, the pots are placed in a greenhouse and kept under good growth conditions for the trial plants. The damage to the test plants is scored visually after a test period of 3 weeks by comparison with untreated controls (herbicidal activity in percent (%): 100% activity=the plants have died, 0% activity=like control plants). […] The tables below illustrate, in an illustrative manner, the post-emergence herbicidal action of the compounds of the invention, the herbicidal activity being stated in percent.

A further assay has as its system PHBPU. Kind of assay: Pre-emergence herbicidal action against PHBPU. It counts as in vivo, Pharbitis purpurea. Conditions: Ipomoea purpurea, 504 h; for pest or weed control at 320 g/ha: dosage 320 g/ha. Summed up: as §1
For another assay, the system named is SETVI. Kind of assay: Pre-emergence herbicidal action against SETVI. The class given is in vivo, Setaria viridis. The settings on record: Setaria viridis, 504 h; for pest or weed control at 80 g/ha: dosage 80 g/ha; for pest or weed control at 320 g/ha: dosage 320 g/ha. Summed up:
as §1

The next assay concerns VIOTR. Kind of assay: Pre-emergence herbicidal action against VIOTR. The settings on record: Viola tricolor, 504 h; for pest or weed control at 80 g/ha: dosage 80 g/ha; for pest or weed control at 320 g/ha: dosage 320 g/ha. The class given is in vivo, Viola tricolor. In short, it runs like this:
as §1

The subject of assay [2] is DIGSA. Kind of assay: Pre-emergence herbicidal action against DIGSA. The class given is in vivo, Digitaria sanguinalis. The settings on record: Digitaria sanguinalis, 504 h. In short, it runs like this: as §1
Assay [3] concerns DIGSA. Kind of assay: Post-emergence herbicidal action against DIGSA. The class given is in vivo, Digitaria sanguinalis. Conditions: Digitaria sanguinalis, 504 h. In short, it runs like this: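 Weeds in sandy loam soil received a post-emergence spray at the one-leaf stage. Compounds were applied as WP or EC in water, 600 to 800 l/ha, with 0.2% wetting agent. Activity in % was judged visually after roughly 3 weeks against untreated plants.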

In a further assay the test system is harmful plants. Kind of assay: Comparative experiments: herbicidal pre-emergence action versus compounds known from D1 (WO 2012/028579 A1). The class given is in vivo. Details: key to Herbicidal action against ALOMY / Herbicidal action against AVEFA / Herbicidal action against SETVI / Herbicidal action against AMARE / Herbicidal action against STEME / Herbicidal action against VIOTR / Herbicidal action against HORMU / Herbicidal action against MATIN / Herbicidal action against ABUTH: % herbicidal activity: 0 = like control, 100 = plants died. Conditions: 80 g a.i./ha.
Excerpt: as §2, with “percent. In the experiments that follow, herbicidal action of numerous inventive compounds and the structurally closest compounds known from D1 (WO 2012/028579 A1) were compared under the above-specified conditions by the pre-emergence and post-emergence method. The example numbers given in the tables relate to the compounds disclosed in the respective documents.” for “percent.”

Assay [4] relates to CYPES. Kind of assay: Post-emergence herbicidal action against CYPES. It counts as in vivo, Cyperus esculentus. The settings on record: visual assessment about 3 weeks after treatment, 100% = plants have died, 0% = like control plants. As to the method:
Seeds of monocotyledonous and dicotyledonous weed and crop plants are laid out in sandy loam soil in wood-fiber pots, covered with soil and cultivated in a greenhouse under good growth conditions. 2 to 3 weeks after sowing, the test plants are treated at the one-leaf stage. The compounds of the invention, formulated in the form of wettable powders (WP) or as emulsion concentrates (EC), are then sprayed onto the green parts of the plants in the form of an aqueous suspension or emulsion at a water application rate equivalent to 600 to 800 l/ha, with addition of 0.2% wetting agent. After the test plants have been left to stand in the greenhouse under optimal growth conditions for about 3 weeks, the action of the preparations is assessed visually in comparison to untreated controls (herbicidal action in percent (%): 100% activity=the plants have died, 0% activity=like control plants). […] The tables below illustrate, in an illustrative manner, the post-emergence herbicidal action of the compounds of the invention, the herbicidal activity being stated in percent.

The mark [5] stands for this setting: scored visually after 3 weeks, 100% = plants have died, 0% = like control plants.

Each structure is given as a SMILES string.

A word on the pest or weed control: it is how far the test organism was held down. For the molecule `CNC(=O)c1c(C(F)(F)F)ccc(C(=O)Nc2nnc(C)o2)c1Cl` [Example 6-116], the pest or weed control at 80 g/ha in the assay on ALOMY, with AMARE, with CYPES [1] (setting [5]), with SETVI and in the assay with VIOTR was 100% in each case. Also, the pest or weed control at 320 g/ha stood at 100% in the assay with ALOMY; 100% in the assay with AMARE; 100% in the assay on CYPES [1]; 80% with PHBPU; 100% in the assay on SETVI; 100% in the assay on VIOTR. For the same molecule, the pest or weed control at 20 g/ha in the assay with AMARE is 100%; in the assay with CYPES [1] (20 g/ha, scored visually after 3 weeks, 100% = plants have died, 0% = like control plants), 100%.

Take `CCCn1nnnc1NC(=O)c1ccc(C(F)(F)F)c(C(=O)NC)c1Cl` [Example 3-129]: the pest or weed control at 80 g/ha in the assay on ALOMY stood at 80%; in the assay on AMARE it was 100%; in the assay with CYPES [1] (setting [5]) it was 100%; with PHBPU (dosage 80 g/ha), 90%; in the assay with SETVI it was 90%; with VIOTR, 100%. Further, the pest or weed control at 320 g/ha in the assay with ALOMY, with AMARE, in the assay on CYPES [1], with PHBPU, with SETVI and with VIOTR was 100% in each case. Besides, the pest or weed control at 20 g/ha in the assay with AMARE stood at 100%; in the assay on PHBPU (dosage 20 g/ha) it was 80%; in the assay with VIOTR (dosage 20 g/ha) it was 100%.

In the case of `CCn1nnnc1NC(=O)c1ccc(C(F)F)c(C(=O)NC)c1Cl` [Example 2-147], the pest or weed control at 80 g/ha in the assay on ALOMY was found to be 90%; with AMARE it was 100%; with SETVI, 100%; in the assay on VIOTR, 100%; in the assay with DIGSA [2] (dosage 80 g/ha), 100%; in the assay on DIGSA [3] (80 g/ha), 90%. Moreover, the pest or weed control at 320 g/ha with ALOMY, in the assay with AMARE, in the assay on SETVI, with VIOTR and with DIGSA [2] (dosage 320 g/ha) was 100% each time. For the same molecule, the pest or weed control at 20 g/ha with DIGSA [3] (20 g/ha) was found to be 90%. Also, the “Herbicidal action against ALOMY” value in the assay with harmful plants (ALOMY) is recorded as 90. Besides, the “Herbicidal action against AVEFA” value in the assay with harmful plants (AVEFA) is 100. The “Herbicidal action against HORMU” value in the assay with harmful plants (HORMU) turned out to be 90. In addition, the “Herbicidal action against SETVI” value with harmful plants (SETVI) is listed as 100. In addition, the “Herbicidal action against STEME” value in the assay with harmful plants (STEME) worked out at 70.

For `CCn1nnnc1NC(=O)c1ccc(C(F)(F)F)c(C(N)=O)c1Cl` [Example 2-338], the pest or weed control at 80 g/ha in the assay with ALOMY worked out at 90%; with AMARE, 100%; with CYPES [1] (setting [5]) it was 90%; in the assay on SETVI, 90%; with VIOTR, 100%. The pest or weed control at 320 g/ha in the assay on ALOMY was found to be 100%; in the assay with AMARE it was 100%; with CYPES [1], 100%; in the assay with PHBPU, 80%; in the assay with SETVI, 100%; in the assay with VIOTR, 100%. The molecule further yielded a pest or weed control at 20 g/ha in the assay on AMARE of 90%.

Turning to `CCCn1nnnc1NC(=O)c1ccc(C(F)(F)F)c(C(N)=O)c1Cl` [Example 3-338], the pest or weed control at 80 g/ha was 80% in the assay with ALOMY, 100% with AMARE, 90% with CYPES [1] (setting [5]) and 90% in the assay on VIOTR. In addition, the pest or weed control at 320 g/ha in the assay with ALOMY came to 100%; with AMARE, 100%; in the assay with CYPES [1], 90%; in the assay with PHBPU, 100%; in the assay on SETVI, 100%; in the assay with VIOTR, 100%. The pest or weed control at 20 g/ha in the assay with AMARE was 80%.

In the case of `Cn1nnnc1NC(=O)c1ccc(C(F)(F)F)c(C(N)=O)c1Cl` [Example 1-338], the pest or weed control at 320 g/ha in the assay with ALOMY came out at 100%; in the assay on AMARE it was 100%; in the assay with CYPES [1] it was 100%; in the assay with PHBPU it was 80%; in the assay on SETVI it was 100%; in the assay on VIOTR, 100%. For the same molecule, the pest or weed control at 20 g/ha in the assay with AMARE was determined as 100%. Further, the pest or weed control at 80 g/ha in the assay with AMARE was determined as 100%; in the assay with CYPES [1] (setting [5]), 90%; in the assay with SETVI, 90%; in the assay with VIOTR, 80%. Besides, in the assay with CYPES [4] (20 g/ha), the “Post-emergence action at 20 g/ha against CYPES in %” value is recorded as 80%. Further, the “Post-emergence action at 80 g/ha against CYPES in %” value in the assay with CYPES [4] (80 g/ha) was determined as 90%.

The values above are taken from patent publication US12655116B2, “Substituted isophthalic acid diamides” (Bayer Aktiengesellschaft, priority 2020, dated 2026).
